Laboratory results as given in patent EP3895702B1, “DERIVATIVE OF VALPROIC ACID AND DICHLOROACETATE USED FOR THE TREATMENT OF CANCER” (Lietuvos sveikatos mokslu universitetas, priority 2020, dated 2021).

Columns and labels:
[1] = system: glioblastoma U87 MG tumors; assay: Invasion of glioblastoma tumor graft into chicken embryo chorioallantoic membrane (CAM) mesenchyme; type: in vivo; details: control 90.9%
Procedure: Synergistic effect of VPA and DCA on glioblastoma tumor (GB) graft on chicken embryo chorioallantoic membrane (CAM). […] Invasion into the CAM mesenchyme was detected in 50% of cases with 10 mM NaDCA treatment of GB (A-b and B). […] The incidence of invasion into the CAM mesenchyme was 9.1% in the group treated with the combination of 4 mM VPA and 5 mM DCA (A-c and B).
A - morphological changes of the chorioallantoic membrane in the groups studied: a - tumor formed from glioblastoma U87 MG cells; GB injured the integrity of the chorionic epithelium (ChE) (indicated by arrows) and invaded the CAM mesenchyme; b - GB treated with 10 mM NaDCA; no invasion of the CAM mesenchyme was detected, ChE injury already started (location marked with an arrow); c - GB treated with a combination of 4 mM VPA and 5 mM DCA; GB formed on the CAM surface, ChE integrity damaged (location marked with an arrow), CAM thinned (scale - 200 µm). […] C - fluorescence biomicroscopy of angiogenesis on the 5th day after tumor transplantation on CAM: a - untreated GB tumors, b - GB-4 mM VPA-5 mM DCA group; VPA-DCA treated tumor fluorescence is weaker compared to the control group tumor; a and b-a short arrow indicates the blood vessels attracted by the tumor, long arrow indicates a tumor (scale - 1 mm).

[2] = aqueous solution; cited from earlier work

Q: For `O=C([O-])C(Cl)Cl.[Na+]` [NaDCA, Sodium dichloroacetate], which “Invasion into the CAM mesenchyme (cases)” value ([1]; 10 mM NaDCA, n = 14) is on record?
A: 50%

Q: For `CCCC(CCC)C(=O)O` [valproic acid, 2-propyl-pentanoic acid], which “ionization equilibrium constant Kr” value [2] is on record?
A: 2.2·10^-5

Q: With Magnesium dichloroacetate [MgDCA] as the molecule, how does the Invasion rate ([1]; 5 mM MgDCA, n = 7) read?
A: 14.3%
